From patent US5004690A, “Ascorbic acid intermediates and process enzymes” (Genetech, Inc., priority 1989, dated 1991)
Where two headings read alike, the source gives them in different places.

Biological target: T1, 2,5-DKG reductase (Corynebacterium sp., UniProt P06632)
T1 construct: resuspension in 650 ml Tris buffer containing 2 mg/ml lyozyme to release intracellular proteins; endogenous in cells; host or cells: Corynebacterium sp; ATCC 31090 (enzyme purified in house from the cell paste)
Assay: 2,5-DKG reductase assay: kinetic parameters, substrate specificity, cofactor requirements, pH optimum
Assay type: biochemical, Corynebacterium sp. ATCC 31090
Conditions: sodium phosphate buffer 150 mM, pH 6.4, 25° C., enzyme 10 μg, read-out: Michaelis constants (Km)
Source text: The following assay conditions were used to determine kinetic parameters: […]

T1 sequence (P06632 whole entry): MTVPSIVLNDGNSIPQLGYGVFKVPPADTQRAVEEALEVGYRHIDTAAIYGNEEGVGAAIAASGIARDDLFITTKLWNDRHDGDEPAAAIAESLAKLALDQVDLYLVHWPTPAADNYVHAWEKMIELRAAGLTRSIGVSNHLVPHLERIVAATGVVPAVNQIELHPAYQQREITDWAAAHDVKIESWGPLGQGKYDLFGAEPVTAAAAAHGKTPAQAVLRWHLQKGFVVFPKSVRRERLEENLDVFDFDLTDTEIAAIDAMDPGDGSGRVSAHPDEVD

Compound | Km (2,5-DKG 0.43-43 mM) [mM] | Km (NADPH 11-300 μM) [mM]
O=C(O)C(=O)[C@@H](O)[C@H](O)C(=O)CO [2,5-DKG, 2,5-diketogluconic acid] | 15.5 | 
NC(=O)C1=CN([C@@H]2O[C@H](COP(=O)(O)OP(=O)(O)OC[C@H]3O[C@@H](n4cnc5c(N)ncnc54)[C@H](OP(=O)(O)O)[C@@H]3O)[C@@H](O)[C@H]2O)C=CC1 [NADPH] |  | 0.0337
